Several values for one entry are separate records, joined by “and”; a condition that tells them apart may be missing. Equal entries are not always repeated. Structures can show the parent of a compound that is named as a salt. Where two headings read alike, the source gives them in different places.
Legend:
[1] = Evaluation of hygroscopicity (dynamic steam adsorption/desorption); assay type: physicochemical
Method: Approximately 10 mg of a sample was placed in an exclusively-used quartz-made holder and measured under the conditions of a temperature: 25° C., a measurement range: relative humidity 5 to 95%, a measurement interval: relative humidity 5%. Furthermore, the handling of the devices including data processing was conducted in accordance to the methods and procedures as indicated in each device. (Device: dynamic steam adsorption/desorption measuring device SGA-100, manufactured by VTI).
Measuring temperature: 25° C.; drying before measurement: not done; humidity at the beginning: 5% RH; maximum humidity: 95% RH; humidity at the end: 5% RH; step: 5% RH; equilibrium standard: 0.03 wt % in 5 min; maximum equilibrated time: 180 min; sampling interval: 20 sec; data recording interval: 1 min

[2] = Evaluation of stability (residual ratio of compound A after storage, HPLC-UV); assay type: physicochemical
Method: Evaluation of the decomposed product during storage: Approximately 5 mg of a sample was metered into a 10 mL glass mass flask, and a test was carried out in the following storage conditions.
Condition 1: 40° C.—relative humidity 75%—opening—3 months
Condition 2: 70° C.—light shielding—sealing—2 weeks
Condition 3: 25° C.—D65 (1000 lux)—sealing—2 weeks
A dissolution solvent was filled to a marked line in a mess flask including the sample after storage, the dissolved solution was taken as a sample solution, and the compound A in the sample solution was quantified. Furthermore, the detection of the compound A was carried out with UV at 254 nm and the handling of the devices including data processing was conducted in accordance to the methods and procedures as indicated in each device. (Device: LC-1100 Series manufactured by Agilent).
Further, the quantitative value indicates the residual ratio of the compound A after the test to the compound A before the test.

[3] = system: L5/L6 spinal nerve ligation models; assay: L5/L6 spinal nerve ligation model of neuropathic pain, von Frey Test; assay type: in vivo, male SD rats
Method: The evaluation of an analgesic effect on neuropathic pain was performed according to the method of Kim et al. using L5/L6 spinal nerve ligation models. That is, the left L5 and L6 […] nerves of male SD rats were tightly ligated with a silk thread under pentobarbital anesthesia, and thereafter, the evaluation was performed. As the assessment of pain behavior, a von Frey Test on the plantar surface of the animals was employed (Pain, 1992, Vol. 50, p. 355-363). That is, the plantar surface of the operated limb of the nerve ligation rat was stimulated by using von Frey filaments until a withdrawal response was observed, and the lowest amount of force (g) required to elicit withdrawal response was defined as a pain threshold. The evaluation of compounds was performed in a period between 7 and 14 days after the operation in which a decrease in the threshold was stably observed. On the previous day of the evaluation of compounds, a von Frey Test was performed and the rats were grouped so as to minimize the variation in the mean value of pain threshold. Each of a solvent (vehicle) and a diluted solution obtained by diluting compound A hydrochloride as a compound A with a solvent so as to give a dose of 30 mg/kg was orally administered to rats in each group. Distilled water was used as a solvent. A pain threshold was measured at 1 hour after administration. […]

[4] = cited from earlier work
[5] = Condition 1: 40° C., relative humidity 75%, opening, 3 months
[6] = Condition 2: 70° C., light shielding, sealing, 2 weeks
[7] = Condition 3: 25° C., D65 (1000 lux), sealing, 2 weeks
[8] = 25° C., relative humidity 5 to 95%

C1=Cc2cccc(OC[C@H]3CNCCO3)c2C1.O=S(=O)(O)c1ccccc1 [benzenesulfonate]
Weight change(%) [1]: substantially no weight change

Br.C1=Cc2cccc(OC[C@H]3CNCCO3)c2C1 [Hydrobromide (α)]
Quantitative Values (%) (residual ratio of the compound A) [2, 5]: 98%
Quantitative Values (%) (residual ratio of the compound A) [2, 6]: 97%
Quantitative Values (%) (residual ratio of the compound A) [2, 7]: 69%
Weight change(%) [1, 8]: 12.5%

C1=Cc2cccc(OCC3CNCCO3)c2C1 (single isomer, unassigned; (+)) [Hydrochloride, (+)-2-[(inden-7-yloxy)methyl]morpholine]
Quantitative Values (%) (residual ratio of the compound A) [2, 5]: 55%
Quantitative Values (%) (residual ratio of the compound A) [2, 6]: 100%
Quantitative Values (%) (residual ratio of the compound A) [2, 7]: 52%
Relative humidity from which remarkably hygroscopic ([1]; 25° C., FIG. 1): around 75%
Deliquescence accompanying weight change [1, 8]: accompanied by deliquescence
Weight change(%) [1, 8]: 48.5 (accompanied %
Weight change(%) ([1]; 25° C., relative humidity 5 to 95%, listed as hydrochloride of the compound A): 50%
Relative humidity at which deliquescent ([1]; room temperature): approximately 75%
Effect on pain threshold of operated side paw ([3]; 30 mg/kg orally): improved the pain threshold in the operated side of paw to the same level as that in the normal paw
% Effect (recovery ratio of pain threshold) ([3]; 30 mg/kg, p.o., 1 hour after administration, mean ± SEM, normal side paw 100%, operated side paw 0%): 94.5 ± 17.0 %

C1=Cc2cccc(OC[C@H]3CNCCO3)c2C1.O=S(=O)(O)c1ccccc1 [Benzenesulfonate (β)]
Quantitative Values (%) (residual ratio of the compound A) [2]: 95% and 84% and 74%
Weight change(%) [1, 8]: 1.2%

C1=Cc2cccc(OC[C@H]3CNCCO3)c2C1.O=S(=O)(O)c1ccccc1 [Benzenesulfonate (α), (R)-2-[(1H-inden-7-yloxy)methyl]morpholine benzenesulfonate]
Quantitative Values (%) (residual ratio of the compound A) ([2]; benzenesulfonate): 101% and 100% and 94%
Weight change(%) [1, 8]: <0.1%

C1=Cc2cccc(OCC3CNCCO3)c2C1.Cl (racemic) [Indeloxazine hydrochloride]
Stability under normal conditions ([4]; room temperature, tightly closed, light shielding, 36 months): stable
Weight increase by hygroscopicity ([4]; stored at relative humidity 93% for 14 days at around room temperature): substantially no weight increase
